From the NIST ThermoML archive (doi:10.1021/acs.jced.9b00377)
± gives the expanded uncertainty stated by the source.

How the values were obtained:
[1] = refractive index (Na D-line) (dimensionless); details: 100 kPa, Liquid, Standard Abbe refractometry
[2] = for viscosity: Falling or rolling sphere viscometry; for speed of sound: Single path-length method

CCCC(=O)[O-].CN(C)C(=[NH2+])N(C)C [1,1,3,3-tetramethylguanidinium butanoate]
[1]
Details | refractive index
293.15 K | 1.4823 ± 0.01
298.15 K | 1.4809 ± 0.01
303.15 K | 1.4794 ± 0.01
308.15 K | 1.4781 ± 0.01
313.15 K | 1.4766 ± 0.01
318.15 K | 1.4753 ± 0.01
323.15 K | 1.474 ± 0.01
328.15 K | 1.4727 ± 0.01
333.15 K | 1.4716 ± 0.01
338.15 K | 1.4704 ± 0.01
343.15 K | 1.4693 ± 0.01

[2], 100 kPa, Liquid
Details | speed of sound [m/s] | viscosity [mPa·s]
293.15 K | 1593.6 ± 50 | 2480 ± 1000
298.15 K | 1576.5 ± 50 | 1638 ± 680
303.15 K | 1559.4 ± 50 | 1049 ± 430
308.15 K | 1542.3 ± 50 | 694.1 ± 280
313.15 K | 1525.1 ± 50 | 453.1 ± 180
318.15 K | 1508 ± 50 | 318.2 ± 130
323.15 K | 1490.9 ± 50 | 223.5 ± 90
328.15 K | 1475.5 ± 50 | 158.5 ± 64
333.15 K | 1458.4 ± 50 | 114 ± 46
338.15 K | 1441.3 ± 50 | 88.1 ± 35
343.15 K | 1424.1 ± 50 | 65.7 ± 26

[2], 100 kPa, Liquid, Vibrating tube method
Details | mass density [kg/m3]
293.15 K | 1032.2 ± 2.2
298.15 K | 1028.74 ± 2.2
303.15 K | 1025.27 ± 2.2
308.15 K | 1021.74 ± 2.2
313.15 K | 1018.24 ± 2.1
318.15 K | 1014.77 ± 2.1
323.15 K | 1011.3 ± 2.1
328.15 K | 1007.79 ± 2.1
333.15 K | 1004.24 ± 2.1
338.15 K | 1000.67 ± 2.1
343.15 K | 997.07 ± 2.1

CCCCCCC(=O)[O-].CN(C)C(=[NH2+])N(C)C [1,1,3,3-tetramethylguanidinium heptanoate]
[1]
Details | refractive index
293.15 K | 1.4792 ± 0.01
298.15 K | 1.4776 ± 0.01
303.15 K | 1.4759 ± 0.01
308.15 K | 1.474 ± 0.01
313.15 K | 1.4722 ± 0.01
318.15 K | 1.4707 ± 0.01
323.15 K | 1.4689 ± 0.01
328.15 K | 1.4674 ± 0.01
333.15 K | 1.4656 ± 0.01
338.15 K | 1.464 ± 0.01
343.15 K | 1.4628 ± 0.01

[2], 100 kPa, Liquid
Details | speed of sound [m/s] | viscosity [mPa·s]
293.15 K | 1535.5 ± 50 | 1827 ± 760
298.15 K | 1517.9 ± 50 | 1144 ± 470
303.15 K | 1500.2 ± 50 | 740.8 ± 300
308.15 K | 1482.5 ± 50 | 493.9 ± 200
313.15 K | 1464.8 ± 50 | 336.9 ± 140
318.15 K | 1447.2 ± 50 | 242.3 ± 98
323.15 K | 1429.5 ± 50 | 172.9 ± 70
328.15 K | 1413.6 ± 50 | 126.7 ± 51
333.15 K | 1395.9 ± 50 | 94.4 ± 38
338.15 K | 1378.2 ± 50 | 71.6 ± 29
343.15 K | 1360.6 ± 50 | 55.8 ± 22

[2], 100 kPa, Liquid, Vibrating tube method
Details | mass density [kg/m3]
293.15 K | 986.16 ± 2.1
298.15 K | 982.69 ± 2.1
303.15 K | 979.2 ± 2.1
308.15 K | 975.61 ± 2.1
313.15 K | 972.09 ± 2.1
318.15 K | 968.56 ± 2.1
323.15 K | 965 ± 2.1
328.15 K | 961.39 ± 2.1
333.15 K | 957.74 ± 2.1
338.15 K | 954.06 ± 2.1
343.15 K | 950.35 ± 2.1

CCCCCC(=O)[O-].CN(C)C(=[NH2+])N(C)C [1,1,3,3-tetramethylguanidinium hexanoate]
[1]
Details | refractive index
293.15 K | 1.4701 ± 0.01
298.15 K | 1.4684 ± 0.01
303.15 K | 1.466 ± 0.01
308.15 K | 1.4638 ± 0.01
313.15 K | 1.4619 ± 0.01
318.15 K | 1.4601 ± 0.01
323.15 K | 1.458 ± 0.01
328.15 K | 1.4563 ± 0.01
333.15 K | 1.4544 ± 0.01
338.15 K | 1.4528 ± 0.01
343.15 K | 1.4511 ± 0.01

[2], 100 kPa, Liquid
Details | speed of sound [m/s] | viscosity [mPa·s]
293.15 K | 1539 ± 50 | 1534 ± 640
298.15 K | 1522.2 ± 50 | 1001 ± 410
303.15 K | 1505.5 ± 50 | 657.8 ± 270
308.15 K | 1488.8 ± 50 | 442.1 ± 180
313.15 K | 1472.1 ± 50 | 309.8 ± 130
318.15 K | 1455.4 ± 50 | 221.1 ± 89
323.15 K | 1438.7 ± 50 | 159.5 ± 64
328.15 K | 1423.6 ± 50 | 118.5 ± 48
333.15 K | 1406.9 ± 50 | 89.4 ± 36
338.15 K | 1390.2 ± 50 | 69.3 ± 28
343.15 K | 1373.5 ± 50 | 54 ± 22

[2], 100 kPa, Liquid, Vibrating tube method
Details | mass density [kg/m3]
293.15 K | 997.51 ± 2.1
298.15 K | 994.1 ± 2.1
303.15 K | 990.61 ± 2.1
308.15 K | 987.16 ± 2.1
313.15 K | 983.73 ± 2.1
318.15 K | 980.29 ± 2.1
323.15 K | 976.82 ± 2.1
328.15 K | 973.32 ± 2.1
333.15 K | 969.78 ± 2.1
338.15 K | 966.22 ± 2.1
343.15 K | 962.63 ± 2.1

CN(C)C(=[NH2+])N(C)C.O=C([O-])O [1,1,3,3-tetramethylguanidinium hydrogen carbonate]
Details | mass density [kg/m3]
[2], 173 K, 101.33 kPa, Crystal, X-ray diffraction | 1213 ± 12

CCCCCCCC(=O)[O-].CN(C)C(=[NH2+])N(C)C [1,1,3,3-tetramethylguanidinium octanoate]
[1]
Details | refractive index
293.15 K | 1.4678 ± 0.01
298.15 K | 1.4657 ± 0.01
303.15 K | 1.4631 ± 0.01
308.15 K | 1.4612 ± 0.01
313.15 K | 1.4589 ± 0.01
318.15 K | 1.4565 ± 0.01
323.15 K | 1.4544 ± 0.01
328.15 K | 1.4523 ± 0.01
333.15 K | 1.4501 ± 0.01
338.15 K | 1.4482 ± 0.01
343.15 K | 1.4463 ± 0.01

[2], 100 kPa, Liquid
Details | speed of sound [m/s] | viscosity [mPa·s]
293.15 K | 1497.3 ± 50 | 1093 ± 450
298.15 K | 1481.3 ± 50 | 737.2 ± 300
303.15 K | 1465.4 ± 50 | 506.8 ± 210
308.15 K | 1449.4 ± 50 | 347.6 ± 140
313.15 K | 1433.5 ± 50 | 249.6 ± 100
318.15 K | 1417.5 ± 50 | 186.8 ± 75
323.15 K | 1401.6 ± 50 | 138.8 ± 56
328.15 K | 1387.2 ± 50 | 105.7 ± 42
333.15 K | 1371.3 ± 50 | 81.2 ± 32
338.15 K | 1355.3 ± 50 | 65 ± 26
343.15 K | 1339.4 ± 50 | 52.5 ± 21

[2], 100 kPa, Liquid, Vibrating tube method
Details | mass density [kg/m3]
293.15 K | 969.06 ± 2.1
298.15 K | 965.65 ± 2.1
303.15 K | 962.28 ± 2.1
308.15 K | 958.95 ± 2.1
313.15 K | 955.63 ± 2.1
318.15 K | 952.3 ± 2.1
323.15 K | 948.95 ± 2.1
328.15 K | 945.59 ± 2.1
333.15 K | 942.23 ± 2.1
338.15 K | 938.85 ± 2.1
343.15 K | 935.46 ± 2.1

CCCCC(=O)[O-].CN(C)C(=[NH2+])N(C)C [1,1,3,3-tetramethylguanidinium pentanoate]
[1]
Details | refractive index
293.15 K | 1.4776 ± 0.01
298.15 K | 1.4758 ± 0.01
303.15 K | 1.4736 ± 0.01
308.15 K | 1.4718 ± 0.01
313.15 K | 1.4699 ± 0.01
318.15 K | 1.4681 ± 0.01
323.15 K | 1.4664 ± 0.01
328.15 K | 1.4648 ± 0.01
333.15 K | 1.4633 ± 0.01
338.15 K | 1.4615 ± 0.01
343.15 K | 1.46 ± 0.01

[2], 100 kPa, Liquid
Details | speed of sound [m/s] | viscosity [mPa·s]
293.15 K | 1540.6 ± 50 | 1241 ± 510
298.15 K | 1524.7 ± 50 | 797.9 ± 330
303.15 K | 1508.7 ± 50 | 561.1 ± 230
308.15 K | 1492.8 ± 50 | 382.2 ± 150
313.15 K | 1476.8 ± 50 | 268.2 ± 110
318.15 K | 1460.8 ± 50 | 199.7 ± 80
323.15 K | 1444.9 ± 50 | 147.7 ± 59
328.15 K | 1430.5 ± 50 | 111.4 ± 45
333.15 K | 1414.6 ± 50 | 85.2 ± 34
338.15 K | 1398.6 ± 50 | 67.7 ± 27
343.15 K | 1382.7 ± 50 | 54 ± 22

[2], 100 kPa, Liquid, Vibrating tube method
Details | mass density [kg/m3]
293.15 K | 1010.3 ± 2.1
298.15 K | 1006.9 ± 2.1
303.15 K | 1003.4 ± 2.1
308.15 K | 1000 ± 2.1
313.15 K | 996.64 ± 2.1
318.15 K | 993.25 ± 2.1
323.15 K | 989.84 ± 2.1
328.15 K | 986.42 ± 2.1
333.15 K | 982.98 ± 2.1
338.15 K | 979.53 ± 2.1
343.15 K | 976.07 ± 2.1
